Each structure is given as a SMILES string.

Experimental findings from the Kinase Knowledgebase extract (Sharma et al. 2016) are described below.

The experiment concerns the target MAPK14 (UniProt Q16539). The experiment in a line: Inhibition of MAPK14 Kinase Activity.

MAPK14, sequence (Q16539 whole entry, looked up): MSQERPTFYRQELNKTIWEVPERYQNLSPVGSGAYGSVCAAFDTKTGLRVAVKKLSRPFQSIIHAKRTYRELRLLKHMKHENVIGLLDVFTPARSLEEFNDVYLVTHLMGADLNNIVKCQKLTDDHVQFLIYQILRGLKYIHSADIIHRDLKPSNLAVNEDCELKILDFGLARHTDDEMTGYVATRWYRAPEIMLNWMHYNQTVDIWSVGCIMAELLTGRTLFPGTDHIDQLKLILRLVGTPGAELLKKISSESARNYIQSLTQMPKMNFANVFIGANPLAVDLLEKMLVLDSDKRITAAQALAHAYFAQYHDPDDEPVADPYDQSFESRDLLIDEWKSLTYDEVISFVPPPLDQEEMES

In the case of `CC(C)S(=O)(=O)n1c(N)nc2ccc(-c3nc(C4CCCCC4)[nH]c3-c3ccc(F)cc3)cc21`, the IC50 is ≤ 5 µM.

Consider `CC(C)S(=O)(=O)n1c(N)nc2ccc(-c3c(-c4ccccc4)ncn3[C@@H]3CCCC[C@H]3O)cc21`, for which the IC50 was ≤ 5 µM.

Regarding `CC(C)S(=O)(=O)n1c(N)nc2ccc(-c3cn[nH]c3-c3ccccc3)cc21`, the IC50 was ≤ 5 µM.

Turning to `CC(C)S(=O)(=O)n1c(N)nc2ccc(-c3c(-c4ccccc4)ncn3Cc3cccnc3)cc21`, the IC50 is ≤ 5 µM.

Take `CC(C)S(=O)(=O)n1c(N)nc2ccc(-c3c(-c4ccccc4)ncn3C3CCOCC3)cc21`: the IC50 was ≤ 5 µM.

`CC(C)S(=O)(=O)n1c(N)nc2ccc(-c3c(-c4ccccc4F)nc(N=[N+]=[N-])n3C3CC3)cc21`: the IC50 was ≤ 5 µM.

As to `Cc1cccc(-c2[nH]c(C)nc2-c2ccc3nc(N)n(S(=O)(=O)C(C)C)c3c2)c1`, the IC50 is ≤ 5 µM.

Regarding `CC(C)S(=O)(=O)n1c(N)nc2ccc(-c3nc(-c4ccc(NS(C)(=O)=O)cc4)[nH]c3-c3ccccc3)cc21`, the IC50 is ≤ 5 µM.

As to `CC(C)S(=O)(=O)n1c(N)nc2ccc(-c3nc(C4CCN(C)CC4)[nH]c3-c3ccccc3)cc21`, the IC50 was ≤ 5 µM.

For the molecule `CC(C)S(=O)(=O)n1c(N)nc2ccc(-c3nc(CCC(=O)O)[nH]c3-c3ccccc3)cc21`, the IC50 is ≤ 5 µM.

Regarding `CC(C)S(=O)(=O)n1c(N)nc2ccc(-c3nc(-c4ccc(F)cc4F)[nH]c3-c3ccc(F)cc3F)cc21`, the IC50 was ≤ 5 µM.

As to `C#Cc1nc(-c2ccccc2F)c(-c2ccc3nc(N)n(S(=O)(=O)C(C)C)c3c2)n1C1CC1`, the IC50 was ≤ 5 µM.

Turning to `CC(C)S(=O)(=O)n1c(N)nc2ccc(-c3c(-c4ccccc4)ncn3Cc3ccncc3)cc21`, the IC50 was ≤ 5 µM.

On to `CC(C)S(=O)(=O)n1c(N)nc2ccc(-c3c(-c4ccc(F)cc4F)ncn3C3CCCCC3)cc21`, for which the IC50 was ≤ 5 µM.

On to `Cc1cc(F)ccc1-c1[nH]c(-c2ccc(F)cc2)nc1-c1ccc2nc(N)n(S(=O)(=O)C(C)C)c2c1`, for which the half-maximal inhibitory concentration (IC50) is ≤ 5 µM.

Take `CC(C)S(=O)(=O)n1c(N)nc2ccc(-c3nc(CN4CCOCC4)[nH]c3-c3ccccc3)cc21`: the IC50 is ≤ 5 µM.

On to `CC(C)S(=O)(=O)n1c(N)nc2ccc(-c3nc(-c4c(F)cccc4F)[nH]c3-c3ccccc3)cc21`, for which the IC50 was ≤ 5 µM.

Consider `CC(C)S(=O)(=O)n1c(N)nc2ccc(-c3c(-c4ccccc4)ncn3C3CCC(=O)CC3)cc21`, for which the IC50 was ≤ 5 µM.

In the case of `CC(C)S(=O)(=O)n1c(N)nc2ccc(-c3nc(-c4ccc(N)s4)[nH]c3-c3ccccc3)cc21`, the IC50 is ≤ 5 µM.

For `CC(C)S(=O)(=O)n1c(N)nc2ccc(-c3c(-c4ccccc4)nn4c3CCC4)cc21`, the IC50 was ≤ 5 µM.

As for `CC(C)S(=O)(=O)n1c(N)nc2ccc(-c3c(-c4ccccc4)ncn3-c3ccc([N+](=O)[O-])cc3)cc21`, the 50% inhibitory concentration (IC50) was ≤ 5 µM.

Regarding `CC(C)S(=O)(=O)n1c(N)nc2ccc(-c3nc(-c4ccc(N5CCCC5)cc4)[nH]c3-c3ccccc3)cc21`, the IC50 is ≤ 5 µM.

For the molecule `CC(C)S(=O)(=O)n1c(N)nc2ccc(-c3nc(-c4cccc(OCCN5CCCC5)c4)[nH]c3-c3ccccc3)cc21`, the concentration for half-maximal inhibition (IC50) was ≤ 5 µM.

`CC(C)S(=O)(=O)n1c(N)nc2ccc(-c3nc(C4CC4)[nH]c3-c3ccc(F)cc3)cc21`: the IC50 was ≤ 5 µM.

As for `CC(C)S(=O)(=O)n1c(N)nc2ccc(-c3nc(-c4ccc(C(F)(F)F)cc4)[nH]c3-c3ccccc3)cc21`, the IC50 was ≤ 5 µM.

Take `CC(C)S(=O)(=O)n1c(N)nc2ccc(-c3nc[nH]c3-c3ccccc3F)cc21`: the IC50 is ≤ 5 µM.

For `CC(C)S(=O)(=O)n1c(N)nc2ccc(-c3nc(-c4ccccc4F)[nH]c3-c3ccccc3)cc21`, the IC50 was ≤ 5 µM.

`CC(C)S(=O)(=O)n1c(N)nc2ccc(-c3nc(COCc4ccccc4)[nH]c3-c3ccccc3)cc21`: the IC50 is ≤ 5 µM.

With `CC(C)S(=O)(=O)n1c(N)nc2ccc(-c3nc(-c4cccc(OCCC5=CC=CNC=C5)c4)[nH]c3-c3ccccc3)cc21`, the IC50 was ≤ 5 µM.

As to `CC(C)S(=O)(=O)n1c(N)nc2ccc(-c3c(-c4ccc(F)cc4)ncn3C3CCN(Cc4ccccc4)CC3)cc21`, the IC50 was ≤ 5 µM.

Turning to `COc1ccc(-c2nc(-c3ccc4nc(N)n(S(=O)(=O)C(C)C)c4c3)c(-c3ccccc3)[nH]2)cc1`, the IC50 is ≤ 5 µM.

With `CCN(CC)CCOc1cccc(-c2nc(-c3ccc4nc(N)n(S(=O)(=O)C(C)C)c4c3)c(-c3ccccc3)[nH]2)c1`, the IC50 was ≤ 5 µM.

For the molecule `Nc1nc2ccc(-c3nc(-c4cccs4)[nH]c3-c3ccccc3)cc2[nH]1`, the IC50 was ≤ 5 µM.

On to `CC(C)S(=O)(=O)n1c(N)nc2ccc(-c3c(-c4ccccc4F)nc(-c4ccc(Cl)cc4)n3C3CC3)cc21`, for which the IC50 was ≤ 5 µM.

On to `CC1=CC2=NC(c3ccccc3)C(c3ccc4nc(N)n(S(=O)(=O)C(C)C)c4c3)N2C=C1` (stereo unspecified), for which the IC50 was ≤ 5 µM.

Regarding `CC(C)S(=O)(=O)n1c(N)nc2ccc(-c3nc(-c4ccc5c(c4)OCO5)[nH]c3-c3ccccc3)cc21`, the IC50 is ≤ 5 µM.

`CC(C)S(=O)(=O)n1c(N)nc2ccc(-c3c(-c4ccccc4)ncn3C3CCC(NC(=O)OC(C)(C)C)CC3)cc21` (stereo unspecified): the IC50 was ≤ 5 µM.

With `CCOC(=O)/C=C/c1nc(-c2ccc3nc(N)n(S(=O)(=O)C(C)C)c3c2)c(-c2ccccc2)[nH]1`, the IC50 was ≤ 5 µM.

`CC(C)S(=O)(=O)n1c(N)nc2ccc(-c3nc(-c4ccc([N+](=O)[O-])s4)[nH]c3-c3ccccc3)cc21`: the IC50 is ≤ 5 µM.

On to `Cc1nc(-c2ccc3nc(N)n(S(=O)(=O)C(C)C)c3c2)c(-c2ccc(F)cc2F)n1Cc1ccccc1`, for which the IC50 was ≤ 5 µM.

`Nc1nc2ccc(-c3nc(-c4c(F)cccc4F)[nH]c3-c3ccccc3)cc2[nH]1`: the IC50 was ≤ 5 µM.

On to `CC(C)S(=O)(=O)n1c(N)nc2ccc(-c3nc(-c4cccs4)[nH]c3-c3ccccc3)cc21`, for which the 50% inhibitory concentration (IC50) is ≤ 5 µM.

Regarding `NCCc1nc2ccc(-c3c(-c4ccccc4)ncn3C3CCCCC3)cc2s1`, the IC50 was ≤ 5 µM.

In the case of `CC(C)S(=O)(=O)n1c(N)nc2ccc(-c3c(-c4ccc(F)cc4F)ncn3C3CC3)cc21`, the IC50 is ≤ 5 µM.

With `CC(C)S(=O)(=O)n1c(N)nc2ccc(-c3c(-c4ccccc4)ncn3C3CC(C)(C)NC(C)(C)C3)cc21`, the IC50 was ≤ 5 µM.

`CC(C)S(=O)(=O)n1c(N)nc2ccc(-c3c(-c4ccc(F)cc4)ncn3[C@@H](C)CO)cc21`: the IC50 is ≤ 5 µM.

On to `CC(C)S(=O)(=O)n1c(N)nc2ccc(-c3nn[nH]c3-c3ccccc3)cc21`, for which the IC50 is ≤ 5 µM.

For `CC(C)S(=O)(=O)n1c(N)nc2ccc(-c3c(-c4ccccc4)ncn3CC3CC3)cc21`, the IC50 was ≤ 5 µM.

Take `CC(C)S(=O)(=O)n1c(N)nc2ccc(-c3c(-c4ccc(F)cc4)ncn3[C@H]3CC[C@H](O)CC3)cc21`: the IC50 was ≤ 5 µM.

For the molecule `CC(C)S(=O)(=O)n1c(N)nc2ccc(-c3nc(C(F)(F)F)[nH]c3-c3ccccc3)cc21`, the IC50 is ≤ 5 µM.

Regarding `CC(C)S(=O)(=O)n1c(CCN)nc2ccc(-c3nc(-c4c(F)cccc4F)[nH]c3-c3ccccc3)cc21`, the IC50 is ≤ 5 µM.

Regarding `CC(C)S(=O)(=O)n1c(N)nc2ccc(-c3c(-c4cccc(F)c4F)ncn3[C@H]3CC[C@H](O)CC3)cc21`, the IC50 is ≤ 5 µM.

Take `CC(C)S(=O)(=O)n1c(N)nc2ccc(-c3nc(C4CCOCC4)[nH]c3-c3ccc(F)cc3)cc21`: the IC50 was ≤ 5 µM.

For the molecule `CCOC(=O)N1CCC(n2cnc(-c3cccc(F)c3)c2-c2ccc3nc(N)n(S(=O)(=O)C(C)C)c3c2)CC1`, the IC50 was ≤ 5 µM.

Consider `Cc1ccsc1-c1nc(-c2ccc3nc(N)n(S(=O)(=O)C(C)C)c3c2)c(-c2ccccc2)[nH]1`, for which the IC50 was ≤ 5 µM.

Take `CC(C)S(=O)(=O)n1c(N)nc2ccc(-c3c(-c4cccc(F)c4)ncn3C3CC3)cc21`: the IC50 was ≤ 5 µM.

Consider `CC(C)S(=O)(=O)n1c(N)nc2ccc(-c3nc[nH]c3-c3ccccc3)cc21`, for which the IC50 was ≤ 5 µM.

For the molecule `NCCc1nc2ccc(-c3nc(-c4c(F)cccc4F)[nH]c3-c3ccccc3)cc2[nH]1`, the IC50 is ≤ 5 µM.

Regarding `CC(C)S(=O)(=O)n1c(N)nc2ccc(-c3nc(-c4cccc(OCCN5CCOCC5)c4)[nH]c3-c3ccccc3)cc21`, the IC50 was ≤ 5 µM.

In the case of `CC(C)S(=O)(=O)n1c(N)nc2ccc(-c3nc(-c4nccs4)[nH]c3-c3ccccc3)cc21`, the IC50 is ≤ 5 µM.

Turning to `Cc1ccccc1-c1nc(-c2ccc3nc(N)n(S(=O)(=O)C(C)C)c3c2)c(-c2ccccc2)[nH]1`, the IC50 was ≤ 5 µM.

For the molecule `CC(C)S(=O)(=O)n1c(N)nc2ccc(-c3nc(-c4cc(F)ccc4F)[nH]c3-c3ccccc3)cc21`, the IC50 is ≤ 5 µM.

In the case of `CC(C)S(=O)(=O)n1c(N)nc2ccc(-c3c(-c4ccccc4F)nc(-c4ccc(F)cc4F)n3C3CC3)cc21`, the IC50 is ≤ 5 µM.

`CC(C)n1cnc(-c2ccc(F)cc2)c1-c1ccc2nc(N)n(S(=O)(=O)C(C)C)c2c1`: the IC50 was ≤ 5 µM.

As for `CC(C)S(=O)(=O)n1c(N)nc2ccc(-c3nc(-c4cccc(F)c4F)[nH]c3-c3ccccc3)cc21`, the IC50 is ≤ 5 µM.

On to `CC(C)S(=O)(=O)n1c(N)nc2ccc(-c3c(-c4ccccc4)ncn3C3CCN(C)CC3)cc21`, for which the IC50 was ≤ 5 µM.

Consider `CC(C)S(=O)(=O)n1c(N)nc2ccc(-c3c(-c4ccccc4F)nc(N)n3C3CC3)cc21`, for which the IC50 was ≤ 5 µM.

For `CC(C)S(=O)(=O)n1c(N)nc2ccc(-c3c(-c4ccccc4)ncn3CCN3CCOCC3)cc21`, the IC50 was ≤ 5 µM.

Consider `CC(C)S(=O)(=O)n1c(N)nc2ccc(-c3nc(-c4ccc(Cl)s4)[nH]c3-c3ccc(F)cc3)cc21`, for which the concentration for half-maximal inhibition (IC50) is ≤ 5 µM.

Take `CC(C)S(=O)(=O)n1c(N)nc2ccc(-c3c(-c4ccsc4)ncn3[C@H]3CC[C@H](O)CC3)cc21`: the IC50 was ≤ 5 µM.

`CC(C)S(=O)(=O)n1c(N)nc2ccc(-c3nc(-c4ccc(Cl)cc4F)[nH]c3-c3ccccc3)cc21`: the IC50 was ≤ 5 µM.

On to `CC(C)S(=O)(=O)n1c(N)nc2ccc(-c3c(-c4ccccc4)nc(-c4cccs4)n3C)cc21`, for which the IC50 is ≤ 5 µM.

In the case of `CC(C)S(=O)(=O)n1c(N)nc2ccc(-c3c(-c4ccc(F)cc4F)ncn3[C@H]3CC[C@H](O)CC3)cc21`, the IC50 was ≤ 5 µM.

Take `COCCn1cnc(-c2ccccc2)c1-c1ccc2nc(N)n(S(=O)(=O)C(C)C)c2c1`: the IC50 is ≤ 5 µM.

Turning to `CC(C)S(=O)(=O)n1c(N)nc2ccc(-c3nc(-c4ccccc4N4CCN(C)CC4)[nH]c3-c3ccccc3)cc21`, the IC50 is ≤ 5 µM.

In the case of `Nc1nc2ccc(-c3nc[nH]c3-c3ccccc3)cc2[nH]1`, the half-maximal inhibitory concentration (IC50) was ≤ 5 µM.
